From patent publication US11866450B2, “Modulators of Cystic Fibrosis Transmembrane Conductance regulator, pharmaceutical compositions, methods of treatment, and process for making the modulators” (priority 2018, dated 2024)

Target: CFTR-mediated chloride transport (Homo sapiens, UniProt P13569)
Format: cell-based
Details: enteroid cells incubated with test compound 18-24 hours, acute 10 μM forskolin and 300 nM Compound III; for Max. Activity: % of chloride transport with 3 μM Compound A, 3 μM Compound II and 300 nM acute Compound III triple combination control
Procedure, shortened: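 Membrane-potential fluorescence AUC over 15 min quantified CFTR chloride transport after acute forskolin (10 μM), IBMX (100 μM) and Compound III (300 nM) in chloride-free buffer. Human enteroid cells were pretreated with compound for 18–24 h; % Activity is relative to 3 μM Compound A + 3 μM Compound II + 300 nM Compound III.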

Chain of CFTR-mediated chloride transport (P13569 whole entry, looked up): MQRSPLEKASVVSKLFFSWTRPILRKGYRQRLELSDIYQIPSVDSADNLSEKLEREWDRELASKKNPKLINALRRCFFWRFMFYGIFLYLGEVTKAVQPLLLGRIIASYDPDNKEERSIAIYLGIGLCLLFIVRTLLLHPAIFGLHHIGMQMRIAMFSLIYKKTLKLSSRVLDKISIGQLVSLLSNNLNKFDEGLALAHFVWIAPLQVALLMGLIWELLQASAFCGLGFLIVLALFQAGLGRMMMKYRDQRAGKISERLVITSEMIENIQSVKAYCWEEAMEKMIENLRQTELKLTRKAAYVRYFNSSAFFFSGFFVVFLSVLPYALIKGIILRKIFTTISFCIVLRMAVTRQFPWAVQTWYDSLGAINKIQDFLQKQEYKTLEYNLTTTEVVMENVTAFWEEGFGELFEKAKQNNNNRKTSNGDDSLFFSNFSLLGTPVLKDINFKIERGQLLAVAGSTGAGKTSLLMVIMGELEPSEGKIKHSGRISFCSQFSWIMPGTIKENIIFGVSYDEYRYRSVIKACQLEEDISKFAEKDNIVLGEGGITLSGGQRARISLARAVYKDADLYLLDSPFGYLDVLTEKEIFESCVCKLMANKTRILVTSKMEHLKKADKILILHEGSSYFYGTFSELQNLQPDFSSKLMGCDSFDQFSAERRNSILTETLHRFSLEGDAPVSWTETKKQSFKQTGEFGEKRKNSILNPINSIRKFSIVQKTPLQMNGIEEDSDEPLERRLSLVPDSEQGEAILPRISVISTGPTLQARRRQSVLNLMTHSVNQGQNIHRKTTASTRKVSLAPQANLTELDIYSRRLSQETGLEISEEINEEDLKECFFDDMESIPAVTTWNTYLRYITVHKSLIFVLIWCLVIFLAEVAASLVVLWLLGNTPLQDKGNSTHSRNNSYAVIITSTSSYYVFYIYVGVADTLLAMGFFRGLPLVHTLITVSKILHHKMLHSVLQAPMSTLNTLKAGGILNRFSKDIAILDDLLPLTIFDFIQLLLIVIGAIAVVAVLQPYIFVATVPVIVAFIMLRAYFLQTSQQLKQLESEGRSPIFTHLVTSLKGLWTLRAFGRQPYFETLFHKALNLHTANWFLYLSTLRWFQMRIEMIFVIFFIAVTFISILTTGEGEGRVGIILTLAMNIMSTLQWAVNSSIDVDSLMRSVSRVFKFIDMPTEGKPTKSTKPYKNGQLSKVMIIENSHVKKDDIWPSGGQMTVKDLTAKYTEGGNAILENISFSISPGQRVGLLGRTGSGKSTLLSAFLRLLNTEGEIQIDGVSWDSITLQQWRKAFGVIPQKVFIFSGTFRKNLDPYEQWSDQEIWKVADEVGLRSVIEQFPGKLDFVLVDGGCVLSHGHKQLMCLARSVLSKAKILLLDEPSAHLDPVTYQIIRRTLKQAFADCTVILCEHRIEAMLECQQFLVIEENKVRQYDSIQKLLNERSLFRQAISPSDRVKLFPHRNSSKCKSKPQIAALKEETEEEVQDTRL

SMILES | EC50 [nM] | Max. Activity
CC1(C)C[C@@H]2CN1c1nc(-n3ccc(OCCC4C5(CC5)C45CC5)n3)ccc1C(=O)NS(=O)(=O)c1cccc(n1)NCC(F)(F)C2 (single isomer, unassigned) [Compound 304, 8-[3-(2-{dispiro[2.0.2.1]heptan-7-yl}ethoxy)-1H-pyrazol-1-yl]-16,16-difluoro-12,12-dimethyl-2λ^6-thia-3,9,11,18,23-pentaazatetracyclo[17.3.1.111,14.05,10]tetracosa-1(22),5,7,9,19(23),20-hexaene-2,2,4-trione] | < 1000 | +++ (+++ is >60%)
CC1(C)C[C@@H]2CN1c1nc(-n3ccc(OCCC4C5(CC5)C45CC5)n3)ccc1C(=O)NS(=O)(=O)c1cccc(n1)NCC(F)(F)C2 (single isomer, unassigned) [Compound 305, 8-[3-(2-{Dispiro[2.0.2.1]heptan-7-yl}ethoxy)-1H-pyrazol-1-yl]-16,16-difluoro-12,12-dimethyl-2λ^6-thia-3,9,11,18,23-pentaazatetracyclo[17.3.1.111,14.05,10]tetracosa-1(22),5,7,9,19(23),20-hexaene-2,2,4-trione] | > 3000 | + (+ is <30%)
CC1(C)C[C@H]2C[C@@H](F)CNc3cccc(n3)S(=O)(=O)NC(=O)c3ccc(-n4ccc(OCCC5C6(CC6)C56CC6)n4)nc3N1C2 (single isomer, unassigned) [Compound 306, 8-[3-(2-{dispiro[2.0.2.1]heptan-7-yl}ethoxy)-1H-pyrazol-1-yl]-16-fluoro-12,12-dimethyl-2λ^6-thia-3,9,11,18,23-pentaazatetracyclo[17.3.1.111,14.05,10]tetracosa-1(22),5,7,9,19(23),20-hexaene-2,2,4-trione] | < 1000 | +++ (+++ is >60%)
CC1(C)C[C@H]2C[C@@H](F)CNc3cccc(n3)S(=O)(=O)NC(=O)c3ccc(-n4ccc(OCCC5C6(CC6)C56CC6)n4)nc3N1C2 (single isomer, unassigned) [Compound 307, 8-[3-(2-{dispiro[2.0.2.1]heptan-7-yl}ethoxy)-1H-pyrazol-1-yl]-16-fluoro-12,12-dimethyl-2λ^6-thia-3,9,11,18,23-pentaazatetracyclo[17.3.1.111,14.05,10]tetracosa-1(22),5,7,9,19(23),20-hexaene-2,2,4-trione] | > 3000 | + (+ is <30%)
CC1(C)C[C@H]2C[C@@H](F)CNc3cccc(n3)S(=O)(=O)NC(=O)c3ccc(-n4ccc(OCCC5C6(CC6)C56CC6)n4)nc3N1C2 (single isomer, unassigned) [Compound 308, 8-[3-(2-{dispiro[2.0.2.1]heptan-7-yl}ethoxy)-1H-pyrazol-1-yl]-16-fluoro-12,12-dimethyl-2λ^6-thia-3,9,11,18,23-pentaazatetracyclo[17.3.1.111,14.05,10]tetracosa-1(22),5,7,9,19(23),20-hexaene-2,2,4-trione] | < 1000 | + (+ is <30%)
CC1(C)C[C@H]2C[C@@H](F)CNc3cccc(n3)S(=O)(=O)NC(=O)c3ccc(-n4ccc(OCCC5C6(CC6)C56CC6)n4)nc3N1C2 (single isomer, unassigned) [Compound 309, 8-[3-(2-{Dispiro[2.0.2.1]heptan-7-yl}ethoxy)-1H-pyrazol-1-yl]-16-fluoro-12,12-dimethyl-2λ^6-thia-3,9,11,18,23-pentaazatetracyclo[17.3.1.111,14.05,10]tetracosa-1(22),5,7,9,19(23),20-hexaene-2,2,4-trione] | < 1000 | +++ (+++ is >60%)
CC1(C)C[C@H]2CCCn3ccc(n3)S(=O)(=O)NC(=O)c3ccc(N4CCC(OCCC5(C(F)(F)F)CC5)C4=O)nc3N1C2 (stereo in doubt) [Compound 183, 20,20-Dimethyl-4-(2-oxo-3-{2-[1-(trifluoromethyl)cyclopropyl]ethoxy}pyrrolidin-1-yl)-10λ^6-thia-1,3,9,14,22-pentaazatetracyclo[16.2.1.111,14.02,7]docosa-2,4,6,11(22),12-pentaene-8,10,10-trione] | < 1000 | ++ (++ is 30-60%)
CC(C)(C)CCC1CCN(c2ccc3c(n2)N2C[C@H](CCCn4ccc(n4)S(=O)(=O)NC3=O)CC2(C)C)C1=O (stereo in doubt) [Compound 184, 4-[3-(3,3-dimethylbutyl)-2-oxopyrrolidin-1-yl]-20,20-dimethyl-10λ^6-thia-1,3,9,14,22-pentaazatetracyclo[16.2.1.111,14.02,7]docosa-2,4,6,11(22),12-pentaene-8,10,10-trione] | 1000 to 3000 | + (+ is <30%)
CN1CCC[C@H]2CCC(C)(C)N2c2nc(-n3ccc(OCCC4(C(F)(F)F)CC4)n3)ccc2C(=O)NS(=O)(=O)c2cccc1n2 [Compound 10, (15S)-12,12,19-trimethyl-8-(3-{2-[1-(trifluoromethyl)cyclopropyl]ethoxy}-1H-pyrazol-1-yl)-2λ^6-thia-3,9,11,19,24-pentaazatetracyclo[18.3.1.05,10.011,15]tetracosa-1(24),5(10),6,8,20,22-hexaene-2,2,4-trione] | > 3000 | + (+ is <30%)
CN1CCC[C@@H]2CCC(C)(C)N2c2nc(-n3ccc(OCCC4(C(F)(F)F)CC4)n3)ccc2C(=O)NS(=O)(=O)c2cccc1n2 [Compound 11, (15R)-12,12,19-trimethyl-8-(3-{2-[1-(trifluoromethyl)cyclopropyl]ethoxy}-1H-pyrazol-1-yl)-2λ^6-thia-3,9,11,19,24-pentaazatetracyclo[18.3.1.05,10.011,15]tetracosa-1(24),5(10),6,8,20,22-hexaene-2,2,4-trione] | < 1000 | +++ (+++ is >60%)
CC1(C)C[C@H]2CCCNc3cccc(n3)S(=O)(=O)NC(=O)c3ccc(-n4ccc(OCCC5(C(F)(F)F)CC5)n4)nc3N1C2 [Compound 13, (14R)-12,12-dimethyl-8-(3-{2-[1-(trifluoromethyl)cyclopropyl]ethoxy}-1H-pyrazol-1-yl)-2λ^6-thia-3,9,11,18,23-pentaazatetracyclo[17.3.1.111,14.05,10]tetracosa-1(23),5,7,9,19,21-hexaene-2,2,4-trione] | 1000 to 3000 | + (+ is <30%)
CC1(C)C[C@@H]2CCCNc3cccc(n3)S(=O)(=O)NC(=O)c3ccc(-n4ccc(OCCC5(C(F)(F)F)CC5)n4)nc3N1C2 [Compound 14, (14S)-12,12-dimethyl-8-(3-{2-[1-(trifluoromethyl)cyclopropyl]ethoxy}-1H-pyrazol-1-yl)-2λ^6-thia-3,9,11,18,23-pentaazatetracyclo[17.3.1.111,14.05,10]tetracosa-1(23),5,7,9,19,21-hexaene-2,2,4-trione] | < 1000 | +++ (+++ is >60%)
CC1(C)CC[C@@H]2CCCNc3cccc(n3)S(=O)(=O)NC(=O)c3ccc(-n4ccc(OCCC5(C(F)(F)F)CC5)n4)nc3N21 [Compound 33, (15S)-12,12-Dimethyl-8-(3-{2-[1-(trifluoromethyl)cyclopropyl]ethoxy}-1H-pyrazol-1-yl)-2λ^6-thia-3,9,11,19,24-pentaazatetracyclo[18.3.1.05,10.011,15]tetracosa-1(23),5,7,9,20(24),21-hexaene-2,2,4-trione] | > 3000 | + (+ is <30%)
